Test results as given in the RepoRT retention time repository (doi:10.1021/acs.analchem.1c00972).

Experiment: RP, Waters ACQUITY UPLC BEH C18, 100 × 1 mm, 1.7 µm, 50 °C, 0.3 mL/min, estimated dead time 0.17 min; A: water + 0.1% formic acid + 20 mM ammonium formate; B: methanol + 0.1% formic acid + 20 mM ammonium formate; gradient (min/%B) 0/0 15/100 21/100 22/0 30/0
Details: stereoisomer not certain

| Structure (SMILES) | LC retention time [min] |
| --- | --- |
| O=[N+]([O-])c1ccc(C2OC2c2ccc([N+](=O)[O-])cc2S(=O)(=O)O)c(S(=O)(=O)O)c1 (stereo not drawn) | 11.5 |
| CC(C)(C)Nc1nc(=O)[nH]c(=O)[nH]1 | 13.3 |
| CNC(=O)NCc1cnc(Cl)s1 | 7.69 |
| CC1(C)C2CC=C(CO)C1C2 (single isomer, unassigned; (-)) [(-)-Myrtenol] | 11.5 |
| CC(C)C1CCC(Cc2ccc(Cl)cc2)C1(O)Cn1cncn1 (single isomer, unassigned; isomer 1) [Ipconazole (Isomer 1)] | 16.4 |
| CC(C)(N)CN [1,2-Diamino-2-methylpropane] | 18.5 |
| CN1CCN(C)C1=O [1,3-Dimethyl-2-imidazolidinone] | 6.1 |
| Cn1c(=O)c2[nH]c(=O)[nH]c2n(C)c1=O [1,3-Dimethyluric acid] | 5.8 |
| Nc1ccc2nc3c(N)cccc3nc2c1 [1,7-Diaminophenazine] | 8.24 |
| CC(C)c1ccc(NC(N)=O)cc1 [1-(4-Isopropylphenyl)-Harnstoff] | 12.3 |
| Cc1nccc2ccccc12 [1-Methylisochinolin] | 6.14 |
| CC(C)NC(=O)NC(C)C [1.3-Diisopropylurea] | 8.54 |
| O=c1ccn(C2OC(CO)C(O)C2(F)F)c(=O)[nH]1 (stereo not drawn) [2',2'-Difluoro-2'-deoxyuridine] | 4.8 |
| Nc1ccc(Cl)cc1Cl [2,4-Dichloroaniline] | 17.6 |
| Nc1c(Cl)cccc1Cl [2,6-Dichloroaniline] | 17.6 |
| Nc1ccc2nc3ccc(N)cc3nc2c1 [2,8-Diaminophenazine] | 8.24 |
| OCCc1cccc(O)c1 [2-(3-Hydroxyphenyl)ethanol] | 2.8 |
| CCN(CCO)c1cccc(C)c1 [2-(N-Ethyl-N-m-toluidino)ethanol] | 6.13 |
| CC(=O)c1ccc2ccccc2c1 [2-Acetonaphthone] | 13.5 |
| COc1nc(C)nc(N)n1 [2-Amino-4-methoxy-6-methyl-1.3.5-triazine (MMT)] | 5.15 |
| Nc1nc2ccccc2[nH]1 [2-Aminobenzimidazole] | 6.08 |
| CCOc1ccccc1C(N)=O [2-Ethoxybenzamide] | 10.1 |

| Structure (SMILES) | LC retention time [min] |
| --- | --- |
| COc1cccc(CO)c1O [2-Hydroxy-3-methoxybenzyl alcohol] | 9 |
| Cn1sccc1=O [2-Methyl-4-isothiazolin-3-one] | 3.3 |
| Cc1ccccc1O [2-Methylphenol] | 14.3 |
| Nc1ccc(Cl)c(Cl)c1 [3,4-Dichloroaniline] | 17.6 |
| O=C(O)c1cc(Br)c(O)c(Br)c1 [3,5-Dibromo-4-hydroxybenzoic acid] | 11.4 |
| Nc1cc(Cl)cc(Cl)c1 [3,5-Dichloroaniline] | 17.6 |
| CCCCCCCCSCCOCCOCCOCCO [3,6,9-Trioxa-12-thia-eicosanol] | 18.3 |
| OCCc1c[nH]c2ccccc12 [3-(2-Hydroxyethyl)indole] | 7 |
| Cc1ccc(N)cc1Cl [3-Chloro-4-methylaniline] | 10.1 |
| CCCCCCCC(O)CC(=O)O (stereo not drawn) [3-Hydroxycapric acid] | 12.3 |
| O=C(O)CCc1c[nH]c2ccccc12 [3-Indolepropionic acid] | 11.7 |
| Cc1cccc(O)c1 [3-Methylphenol] | 14.3 |
| Nc1ccc(C=Cc2ccc(N)cc2S(=O)(=O)O)c(S(=O)(=O)O)c1 [4,4'-Diaminostilbene-2,2'-disulfonic acid] | 9.71 |
| Nc1cc(Cl)c(S(N)(=O)=O)cc1S(N)(=O)=O [4-Amino-6-chloro-1,3-benzenedisulfonamide] | 3.6 |
| Cc1c(N)c(=O)n(-c2ccccc2)n1C [4-Aminoantipyrine] | 7.28 |
| Nc1ccc(Br)cc1 [4-Bromoaniline] | 8.49 |
| O=c1cc(O)c2ccccc2o1 [4-Hydroxycoumarin] | 10.7 |
| CC(C)c1ccc(N)cc1 [4-Isopropylaniline] | 9.8 |
| Cc1ccc(O)cc1 [4-Methylphenol] | 14.3 |
| CC(=O)c1ccc(N)cc1 [4-aminoacetophenone] | 2.5 |
| CCCCCCCCc1ccc(O)cc1 [4-n-Octylphenol] | 16.9 |
| Cc1cc2n[nH]nc2cc1C [5,6-Dimethyl-1,1,1-benzotriazol] | 11.2 |

| Structure (SMILES) | LC retention time [min] |
| --- | --- |
| O=c1cc(-c2ccccc2)c2c(O)cc(O)cc2o1 [5,7-Dihydroxy-4-phenylcoumarin] | 12.1 |
| Cc1ccc(N)cc1O [5-Amino-o-cresol] | 3.69 |
| O=C(O)Cc1c[nH]c2ccc(O)cc12 [5-Hydroxyindole-3-acetic acid] | 6.7 |
| Cc1ccc2n[nH]nc2c1 [5-Methyl-1-H-benzotriazol] | 9.89 |
| CC(=O)C1CCC2C3CC=C4CC(O)CCC4(C)C3CCC12C (stereo not drawn) [5-Pregnen-3.beta.-ol-20-one] | 15.2 |
| CC(C)=CCc1c(O)cc(O)c2c1OC(c1ccc(O)cc1)CC2=O (stereo not drawn) [8-Prenylnaringenin] | 14.5 |
| CC(C=CC1=C(C)CCCC1(C)C)=CC=CC(C)=CC(=O)O [9-cis-Retinoic acid] | 16 |
| CCCC(=O)Nc1ccc(OCC(O)CNC(C)C)c(C(C)=O)c1 (stereo not drawn) [Acebutolol] | 15.9 |
| CC(=NC#N)N(C)Cc1ccc(Cl)nc1 [Acetamiprid] | 9.33 |
| CCOCN(C(=O)CS(=O)(=O)O)c1c(C)cccc1CC [Acetochlor ESA] | 11.9 |
| CCOCN(C(=O)C(=O)O)c1c(C)cccc1CC [Acetochlor OA] | 15.5 |
| CC(=O)Oc1ccccc1C(=O)O [Acetylsalicyls<e4>ure] | 16.5 |
| N#CCCCCC#N [Adiponitrile] | 5.21 |
| C=C1C(O)C2(O)OCC34C(CC5C(C)=CC(=O)C(O)C5(C)C23)OC(=O)CC14 (stereo not drawn) [Ailanthone] | 7.89 |
| CCc1cccc(CC)c1N(COC)C(=O)CS(=O)(=O)O [Alachlor tert-sulfonic acid (ESA)] | 11.8 |
| CC(C)(C)NCC(O)c1ccc(O)c(CO)c1 (stereo not drawn) [Albuterol] | 6 |
| COCCCOc1cc(CC(CC(N)C(O)CC(C(=O)NCC(C)(C)C(N)=O)C(C)C)C(C)C)ccc1OC (stereo not drawn) [Aliskiren] | 13.6 |
| Cc1ccc(N=CN(C)C=Nc2ccc(C)cc2C)c(C)c1 [Amitraz] | 17.7 |
| CC1CC(O)C2(O)C13CC(OC(=O)C3O)C(C)(O)C21COC1=O (stereo not drawn) [Anisatin] | 7.91 |
| O=c1cc(-c2ccc(O)cc2)oc2cc(OC3OC(CO)C(O)C(O)C3OC3OCC(O)(CO)C3O)cc(O)c12 (stereo not drawn) [Apiin] | 10.3 |
| CC(C)Nc1nc(N)[nH]c(=O)n1 [Atrazin-desethyl-2-hydroxy] | 4.31 |
| CCC(C)C1OC2(C=CC1C)CC1CC(CC=C(C)C(OC3CC(OC)C(OC4CC(OC)C(O)C(C)O4)C(C)O3)C(C)C=CC=C3COC4C(O)C(C)=CC(C(=O)O1)C34O)O2 (stereo not drawn) [Avermectin B1a (Abamectin)] | 18.1 |

| Structure (SMILES) | LC retention time [min] |
| --- | --- |
| N#Cc1ccccc1Oc1cc(=O)[nH]cn1 [Azoxystrobin-metabolite] | 8.9 |
| CC(=O)OC1C(=O)C2(C)C(O)CC3OCC3(OC(C)=O)C2C(OC(=O)c2ccccc2)C2(O)CC(O)C(C)=C1C2(C)C (stereo not drawn) [Baccatin III] | 12.5 |
| CC(C)OC(=O)NC(C(=O)NC(C)c1nc2ccc(F)cc2s1)C(C)C (stereo not drawn) [Benthiavalicarb-Isopropyl] | 14.5 |
| Nc1nc(N)nc(-c2ccccc2)n1 [Benzoguanamine] | 7.87 |
| O=C(O)c1ccc2ncsc2c1 [Benzothiazole-6-carbons<e4>ure] | 9.32 |
| c1ccc2scnc2c1 [Benzothiazole] | 10.8 |
| CC(=O)OCC(=O)C1(O)C(C)CC2C3CCC4=CC(=O)C=CC4(C)C3(F)C(O)CC21C (stereo not drawn) [Betamethasone-21-acetate] | 14.1 |
| CCOCCOC(=O)c1ccccc1C(=O)OCCOCC [Bis(2-ethoxyethyl)phthalate] | 13.3 |
| COCCOC(=O)c1ccccc1C(=O)OCCOC [Bis(2-methoxyethyl)phthalate] | 12.3 |
| CC(C)CC(C)OC(=O)c1ccccc1C(=O)OC(C)CC(C)C (stereo not drawn) [Bis(4-methyl-2-pentanyl)phthalate] | 18.2 |
| Oc1ccc(C(=C(Cl)Cl)c2ccc(O)cc2)cc1 [Bisphenol C-dichloride] | 10.5 |
| CC(c1ccc(O)cc1)c1ccc(O)cc1 [Bisphenol E] | 11.5 |
| Oc1ccc(C2(c3ccc(O)cc3)CCCCC2)cc1 [Bisphenol Z] | 16 |
| Cn1cc(C(=O)Nc2ccc(F)cc2-c2ccc(Cl)c(Cl)c2)c(C(F)F)n1 [Bixafen] | 15.4 |
| CCC(C)n1c(=O)[nH]c(C)c(Br)c1=O (stereo not drawn) [Bromacil] | 11.5 |
| CCCCOc1ccc(CC(=O)NO)cc1 [Bufexamac] | 12.6 |
| CCCCN1CCCCC1C(=O)Nc1c(C)cccc1C (stereo not drawn) [Bupivacaine] | 10.6 |
| CCCCOCN(C(=O)CS(=O)(=O)O)c1c(CC)cccc1CC [Butachlor ESA] | 14.5 |
| CCC1(O)C(=O)OCc2c1cc1n(c2=O)Cc2cc3ccccc3nc2-1 (stereo not drawn) [Camptothecin] | 12 |
| CC1=C(C(=O)Nc2ccccc2)SCCO1 [Carboxin] | 11.9 |
| NS(=O)(=O)c1ccc(-n2nc(C(F)(F)F)cc2-c2ccc(C(=O)O)cc2)cc1 [Celecoxib Carboxylic Acid] | 13.6 |
| CCN(CC)C(=O)Nc1ccc(OCC(O)CNC(C)(C)C)c(C(C)=O)c1 (stereo not drawn) [Celiprolol] | 9.97 |
